Patent US20240299385A1 (ReWind Therapeutics NV, priority 2021, published 2024)

Molecular target: T1, human GPR17 receptor (Homo sapiens, UniProt Q13304)
T1 construct: host or cells: HEK-293
Assay: Calcium mobilization functional assay (Fluo-8, FLIPR TETRA) in HEK-293 hGPR17 (Gα-q assay)
Type: cell-based
Details: antagonism of MDL29,951 (~EC80) induced Ca2+ signal; cell line (HEK-293 hGPR17 or HEK-293 Suchi5 hGPR17) not given
Procedure: HEK-293 cells stably expressing the human GPR17 receptor (HEK-293 hGPR17) developed by Axxam (Bresso, Milan, Italy) were cultured at 37° C. in a humidified atmosphere of 5% CO2. Cells were grown in EMEM supplemented with FBS (10%), Penicillin/Streptomycin (1%), Ultraglutamine I (2 mM), puromycin (0.6 μg/mL), G418 (0.4 mg/mL), zeocin (50 μg/mL). This cell line was used to test the compound antagonistic activity by monitoring the Gα-q based signaling. Signaling via Gα-q leads to mobilization of calcium from internal stores. Elevated intracellular calcium levels can then be measured with calcium-sensitive fluorescent dyes (e.g., Fluo 8-No Wash Dye).
GPR17 activation leads to both an increase in intracellular calcium (via Gα-q) and a decrease in cAMP levels (via Gα-i), implicating that both of these pathways play a role for in vivo function.
Experiments were performed using the below cell lines, as described in part 1: • HEK-293 hGPR17 (used to study the compounds acting via Gα-q pathway) • HEK-293 Suchi5 hGPR17 (used to study the compounds acting via Gα-i pathway, where the Gα-i signaling is switched to a Gα-q signaling thanks to the Gα-i/q chimera Suchi5)
GPR17 activation was able to induce an endoplasmic reticulum calcium (Ca^2+) store release in cytosol which could be measured using the fluorescent Ca^2+ sensitive dye Fluo-8 No Wash Dye as readout.
HEK-293 hGPR17 and HEK-293 Suchi5 hGPR17 were seeded at a density of 15,000 cells/well into poly-D-lysine coated black 384-well plates with clear bottom in complete medium. Cells were incubated overnight at 37° C. in a humidified atmosphere of 5% CO2. Twenty-four hours after seeding, the culture medium was carefully removed manually and the cells were loaded for 60 minutes at room temperature with the Ca^2+ sensitive Fluo-8 No Wash Dye, according to manufacturer's instructions. Cells were then assayed using a fluorometric imaging plate reader (FLIPR^TETRA). Fluorescence (excitation: 470-495 nm; emission: 515-575 nm) was recorded during the experiment. […] After twenty minutes, a second injection of MDL29,951 at ˜EC80 (500 nM for HEK-293 hGPR17 and 2 nM for HEK-293 Suchi5 hGPR17) in assay buffer was performed at the FLIPR^TETRA and the signal of the emitted fluorescence was recorded for additional 2 minutes. All the compound injections and incubations were performed in duplicate. For data quality and data analysis the Screener® 16.0.6 (Genedata) software was used.

T1 sequence (Q13304 whole entry): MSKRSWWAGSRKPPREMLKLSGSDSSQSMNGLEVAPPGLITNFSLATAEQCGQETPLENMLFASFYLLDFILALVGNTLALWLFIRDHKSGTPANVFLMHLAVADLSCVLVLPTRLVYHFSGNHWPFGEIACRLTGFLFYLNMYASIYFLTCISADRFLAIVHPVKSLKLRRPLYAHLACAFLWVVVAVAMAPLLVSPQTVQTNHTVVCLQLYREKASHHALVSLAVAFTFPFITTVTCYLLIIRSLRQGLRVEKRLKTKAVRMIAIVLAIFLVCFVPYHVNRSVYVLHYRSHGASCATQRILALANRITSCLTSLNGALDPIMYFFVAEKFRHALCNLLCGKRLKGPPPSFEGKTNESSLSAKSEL

Compound | IC50
N#Cc1ccc(NS(=O)(=O)c2c[nH]c(-c3ccccc3)c2)cc1F [Cpd 035, N-(4-cyano-3-fluoro-phenyl)-5-phenyl-1H-pyrrole-3-sulfonamide] | < 500 nM
N#Cc1ccc(NS(=O)(=O)c2c[nH]c(-c3ccccc3)c2)c(Cl)c1 [Cpd 036, N-(2-chloro-4-cyano-phenyl)-5-phenyl-1H-pyrrole-3-sulfonamide] | 500 to 5000 nM
N#Cc1ccc(NS(=O)(=O)c2c[nH]c(-c3ccccc3)c2)nc1 [Cpd 037, N-(5-cyano-2-pyridyl)-5-phenyl-1H-pyrrole-3-sulfonamide] | 5000 to 50000 nM
N#Cc1ccc(NS(=O)(=O)c2c[nH]c(-c3ccc(F)cc3F)c2)c(F)c1 [Cpd 038, N-(4-cyano-2-fluoro-phenyl)-5-(2,4-difluorophenyl)-1H-pyrrole-3-sulfonamide] | < 500 nM
N#Cc1ccc(NS(=O)(=O)c2c[nH]c(-c3cccc(Cl)c3F)c2)c(F)c1 [Cpd 039, 5-(3-chloro-2-fluoro-phenyl)-N-(4-cyano-2-fluoro-phenyl)-1H-pyrrole-3-sulfonamide] | < 500 nM
N#Cc1ccc(NS(=O)(=O)c2c[nH]c(-c3cccc(F)c3F)c2)c(F)c1 [Cpd 040, N-(4-cyano-2-fluoro-phenyl)-5-(2,3-difluorophenyl)-1H-pyrrole-3-sulfonamide] | < 500 nM
N#Cc1ccc(NS(=O)(=O)c2c[nH]c(-c3cc(F)ccc3F)c2)c(F)c1 [Cpd 041, N-(4-cyano-2-fluoro-phenyl)-5-(2,5-difluorophenyl)-1H-pyrrole-3-sulfonamide] | < 500 nM
Cc1cccc(-c2cc(S(=O)(=O)Nc3ccc(C#N)cc3F)c[nH]2)c1F [Cpd 042, N-(4-cyano-2-fluoro-phenyl)-5-(2-fluoro-3-methyl-phenyl)-1H-pyrrole-3-sulfonamide] | < 500 nM
N#Cc1ccc(NS(=O)(=O)c2c[nH]c(-c3ccc(Cl)cc3F)c2)c(F)c1 [Cpd 045, 5-(4-chloro-2-fluoro-phenyl)-N-(4-cyano-2-fluoro-phenyl)-1H-pyrrole-3-sulfonamide] | 500 to 5000 nM
O=S(=O)(Nc1cc(F)c(F)cc1F)c1c[nH]c(-c2ccccc2F)c1 [Cpd 047, 5-(2-fluorophenyl)-N-(2,4,5-trifluorophenyl)-1H-pyrrole-3-sulfonamide] | 500 to 5000 nM
O=S(=O)(Nc1cccc2c1OCO2)c1c[nH]c(-c2ccccc2F)c1 [Cpd 049, N-(1,3-benzodioxol-4-yl)-5-(2-fluorophenyl)-1H-pyrrole-3-sulfonamide] | 500 to 5000 nM
O=S(=O)(Nc1cc(F)ccc1F)c1c[nH]c(-c2ccccc2F)c1 [Cpd 051, N-(2,5-difluorophenyl)-5-(2-fluorophenyl)-1H-pyrrole-3-sulfonamide] | 500 to 5000 nM
N#CCc1ccc(NS(=O)(=O)c2c[nH]c(-c3ccccc3F)c2)c(F)c1 [Cpd 053, N-[4-(cyanomethyl)-2-fluoro-phenyl]-5-(2-fluorophenyl)-1H-pyrrole-3-sulfonamide] | 500 to 5000 nM
O=S(=O)(Nc1ccc(F)cc1F)c1c[nH]c(-c2ccccc2F)c1 [Cpd 054, N-(2,4-difluorophenyl)-5-(2-fluorophenyl)-1H-pyrrole-3-sulfonamide] | 5000 to 50000 nM
O=S(=O)(Nc1cccc(F)c1F)c1c[nH]c(-c2ccccc2F)c1 [Cpd 056, N-(2,3-difluorophenyl)-5-(2-fluorophenyl)-1H-pyrrole-3-sulfonamide] | 5000 to 50000 nM
Cc1ccc(NS(=O)(=O)c2c[nH]c(-c3ccccc3F)c2)c(F)c1 [Cpd 057, N-(2-fluoro-4-methyl-phenyl)-5-(2-fluorophenyl)-1H-pyrrole-3-sulfonamide] | 500 to 5000 nM
COc1cc(C(F)(F)F)cnc1NS(=O)(=O)c1c[nH]c(-c2ccccc2F)c1 [Cpd 060, 5-(2-fluorophenyl)-N-[3-methoxy-5-(trifluoromethyl)pyridin-2-yl]-1H-pyrrole-3-sulfonamide] | 500 to 5000 nM
COc1cc(CC#N)cnc1NS(=O)(=O)c1c[nH]c(-c2ccccc2)c1 [Cpd 061, N-[5-(cyanomethyl)-3-methoxypyridin-2-yl]-5-phenyl-1H-pyrrole-3-sulfonamide] | < 500 nM
COc1cc(Br)cnc1NS(=O)(=O)c1c[nH]c(-c2ccccc2)c1 [Cpd 062, N-(5-bromo-3-methoxypyridin-2-yl)-5-phenyl-1H-pyrrole-3-sulfonamide] | 500 to 5000 nM
COc1cc(C#N)c(F)cc1NS(=O)(=O)c1c[nH]c(-c2ccccc2)c1 [Cpd 063, N-(4-cyano-5-fluoro-2-methoxyphenyl)-5-phenyl-1H-pyrrole-3-sulfonamide] | < 500 nM
N#Cc1cc(F)c(NS(=O)(=O)c2c[nH]c(-c3ccccc3)c2)c(F)c1 [Cpd 064, N-(4-cyano-2,6-difluoro-phenyl)-5-phenyl-1H-pyrrole-3-sulfonamide] | 500 to 5000 nM
Cc1[nH]cc(S(=O)(=O)Nc2ccc(C#N)cc2F)c1Cc1ccccc1 [Cpd 067, 4-benzyl-N-(4-cyano-2-fluorophenyl)-5-methyl-1H-pyrrole-3-sulfonamide] | 5000 to 50000 nM
O=S(=O)(Nc1ncc(Cl)cc1F)c1c[nH]c(-c2ccccc2)c1 [Cpd 068, N-(5-chloro-3-fluoro-2-pyridyl)-5-phenyl-1H-pyrrole-3-sulfonamide] | < 500 nM
Cc1cc(F)c(NS(=O)(=O)c2c[nH]c(-c3ccccc3)c2)cc1F [Cpd 070, N-(2,5-difluoro-4-methyl-phenyl)-5-phenyl-1H-pyrrole-3-sulfonamide] | < 500 nM
O=S(=O)(Nc1cc(F)c(C(F)(F)F)cc1F)c1c[nH]c(-c2ccccc2)c1 [Cpd 071, N-[2,5-difluoro-4-(trifluoromethyl)phenyl]-5-phenyl-1H-pyrrole-3-sulfonamide] | < 500 nM
N#Cc1ccc(NS(=O)(=O)c2c[nH]c(-c3ccccc3F)c2)cc1F [Cpd 072, N-(4-cyano-3-fluoro-phenyl)-5-(2-fluorophenyl)-1H-pyrrole-3-sulfonamide] | < 500 nM

Continued, values first:

IC50 | Compound
500 to 5000 nM | Cc1ccc(-c2cc(S(=O)(=O)Nc3ccc(C#N)cc3F)c[nH]2)c(F)c1 [Cpd 043, N-(4-cyano-2-fluoro-phenyl)-5-(2-fluoro-4-methyl-phenyl)-1H-pyrrole-3-sulfonamide]
< 500 nM | Cc1ccc(F)c(-c2cc(S(=O)(=O)Nc3ccc(C#N)cc3F)c[nH]2)c1 [Cpd 044, N-(4-cyano-2-fluoro-phenyl)-5-(2-fluoro-5-methyl-phenyl)-1H-pyrrole-3-sulfonamide]
< 500 nM | N#Cc1ccc(NS(=O)(=O)c2c[nH]c(-c3cc(Cl)ccc3F)c2)c(F)c1 [Cpd 046, 5-(5-chloro-2-fluoro-phenyl)-N-(4-cyano-2-fluoro-phenyl)-1H-pyrrole-3-sulfonamide]
500 to 5000 nM | O=S(=O)(Nc1ncc(Cl)cc1F)c1c[nH]c(-c2ccccc2F)c1 [Cpd 048, N-(5-chloro-3-fluoro-2-pyridyl)-5-(2-fluorophenyl)-1H-pyrrole-3-sulfonamide]
< 500 nM | O=S(=O)(Nc1cccc2nsnc12)c1c[nH]c(-c2ccccc2F)c1 [Cpd 050, N-(2,1,3-benzothiadiazol-4-yl)-5-(2-fluorophenyl)-1H-pyrrole-3-sulfonamide]
500 to 5000 nM | O=S(=O)(Nc1ccc(Cl)cc1F)c1c[nH]c(-c2ccccc2F)c1 [Cpd 052, N-(4-chloro-2-fluoro-phenyl)-5-(2-fluorophenyl)-1H-pyrrole-3-sulfonamide]
500 to 5000 nM | O=S(=O)(Nc1ccc(C(F)(F)F)cc1F)c1c[nH]c(-c2ccccc2F)c1 [Cpd 055, 5-(2-fluorophenyl)-N-[2-fluoro-4-(trifluoromethyl)phenyl]-1H-pyrrole-3-sulfonamide]
500 to 5000 nM | N#Cc1ccc(NS(=O)(=O)c2c[nH]c(-c3ccccc3F)c2)cc1Cl [Cpd 058, N-(3-chloro-4-cyano-phenyl)-5-(2-fluorophenyl)-1H-pyrrole-3-sulfonamide]
500 to 5000 nM | COc1cc(NS(=O)(=O)c2c[nH]c(-c3ccccc3F)c2)ccc1C#N [Cpd 059, N-(4-cyano-3-methoxy-phenyl)-5-(2-fluorophenyl)-1H-pyrrole-3-sulfonamide]
< 500 nM | N#CCOc1cc(F)c(NS(=O)(=O)c2c[nH]c(-c3ccccc3)c2)cc1F [Cpd 065, N-[4-(cyanomethoxy)-2,5-difluoro-phenyl]-5-phenyl-1H-pyrrole-3-sulfonamide]
500 to 5000 nM | N#Cc1ccc(NS(=O)(=O)c2c[nH]c(-c3ccncc3F)c2)c(F)c1 [Cpd 066, N-(4-cyano-2-fluoro-phenyl)-5-(3-fluoro-4-pyridyl)-1H-pyrrole-3-sulfonamide]
500 to 5000 nM | O=S(=O)(Nc1cccc2c1OCO2)c1c[nH]c(-c2ccccc2)c1 [Cpd 069, N-(1,3-benzodioxol-4-yl)-5-phenyl-1H-pyrrole-3-sulfonamide]
